# Entries after “also recorded” stand apart in the source; their conditions may differ.
# Tests used:
# [1] = Plasma ghrelin after subcutaneous bolus injection of ghrelin in mice (Example 6); assay type: in vivo
# Procedure: 6+6 mice received 12 or 24 nmol of ghrelin by a subcutaneous bolus injection in the neck (corresponding to 400 and 800 nmol kg^−1, respectively). […] Immunoactive ghrelin was measured in 20 μl plasma with a radioimmunoassay (RIA) that uses an antiserum raised against acylated human ghrelin (Phoenix Pharmaceuticals); ^125I-labelled ghrelin-28 was used as a tracer a rat ghrelin-28 as standard. […] Plasma concentrations were expressed as pmol equivalents of rat ghrelin-28 per liter. Active (octanoylated) ghrelin was determined in 50 μl plasma using an enzyme linked immunosorbent assay (ELISA) kit (LINCO Research, St. Charles, Mo., USA).
# [2] = Clinical follow-up of a cancer cachexia patient treated with ghrelin (Example 4); assay type: in vivo, human
# Procedure: (§1) The patient was treated with subcutaneous injections of 0.8 to 1.5 micrograms/kg ghrelin twice daily for 4 weeks. The injections were taken before meals.
# The patient was followed weekly by standard laboratory tests, Cachexia/anorexia and quality of life questionnaires, body-weight, body-composition analysis (DEXA-scan) and chest-x-ray or thorax-CT among others.
# [3] = Daily subcutaneous ghrelin for 8 weeks in gastrectomised and sham-operated mice (Example 7); assay type: in vivo
# Procedure: Mice were subjected to gastrectomy or to sham operation. Gastrectomy was carried out by resecting the glandular stomach (antrum and fundus), followed by anastomozing the duodenum and the rumen end-to-end. The mortality associated with gastrectomy was 10%. Some of the gastrectomised and sham-operated mice received a subcutaneous dose of ghrelin (12 nmol) daily for 8 weeks. Controls received saline. […] After 8 weeks the mice were killed by decapitation (16-18 h after the last injection). Blood was collected and plasma stored at −20° C. for measurement of ghrelin (see below). Lean tissue was analysed by dual energy x-ray absorptiometry (DXA) (PIXImus, Lunar Corporation, Madison, […]., USA). White adipose tissue (WAT) (mesenteric, retroperitoneal-renal, gonadal and inguinal) and intrascapular brown adipose tissue (BAT) was dissected out and weighed
# Measurement of circulating ghrelin: If not otherwise stated, determination of circulating ghrelin was carried out on plasma from animals at sacrifice (end-point analysis). Immunoactive ghrelin was measured in 20 pi plasma with a radioimmunoassay (RIA) that uses an antiserum raised against acylated human ghrelin (Phoenix Pharmaceuticals); ^125I-labelled ghrelin-28 was used as a tracer a rat ghrelin-28 as standard. […] Plasma concentrations were expressed as pmol equivalents of rat ghrelin-28 per liter. Active (octanoylated) ghrelin was determined in 50 μl plasma using an enzyme linked immunosorbent assay (ELISA) kit (LINCO Research, St. Charles, Mo., USA).
# Statistical analysis: Values are expressed as means±S.E.M. Differences were analyzed by the student t-test or by one-way analysis of variance (ANOVA), using Bonferroni's multiple comparison test. A p value of less than 0.05 was considered statistically significant.
# growth hormone = experiment: Plasma growth hormone before and after subcutaneous ghrelin in a cancer cachexia patient (Example 4); assay type: in vivo, human; conditions: before and after the two subcutaneous injections, 0.8 to 1.5 micrograms/kg twice daily, one patient
# Procedure: as §1
# Pharmacokinetic and pharmacodynamic assessment was performed at day 1 and 2 by blood sampling before and after each injection and measurement of plasma levels of growth hormone and active and total ghrelin.
# [4] = infusion for 90 minutes, cancer cachexia patients; cited from earlier work
# [5] = continuous intravenous infusion for 270 minutes, 5 pmol/kg/min; cited from earlier work
# [6] = Clinical follow-up of a cancer cachexia patient treated with ghrelin (Example 4); assay type: in vivo, human; conditions: weekly IV injections, before the subcutaneous treatment
# [7] = Pharmacokinetics of ghrelin formulations after subcutaneous administration in rats (Examples 9 and 10); assay type: in vivo, Sprague Dawley rats; parameters: Tmax: dose or concentration left out as unconfirmed; conditions: rat
# Procedure: Two different types of liposomes were made containing dipalmitoyl DL-α-phosphatidylcholine (DPPC ) and a mixture of phosphatidylcholin and cholesterol (PC/Chol), respectively. The liposomes were prepared by dissolving and mixing the lipids in chloroform. Chloroform was removed overnight by rotation evaporation, and the resulting lipid film was first striped with ethanol (99,9%) and then left overnight in the rotation evaporator. The multilamellar liposomes were formed by hydration in HEPES-buffer (10 mM HEPES, 50 mM KCl, 1mM NaN3, pH=5,5) for at least 1 h. The hydration temperature was 51° C. (10° C. above the Tm of the phospholipids). Subsequently, the liposomes were sonicated for 30 sec every 10 min during one hour using a tip sonicator. One hundred nanometer unilamellar liposomes were made from the multilamellar liposomes by extrusion through 100 nm polycarbonate filters. Size measurements were performed by dynamic light scattering (DLS) using a Zetasizer 4 (Malvern, UK). Tm were determined by Differential Scanning Caleometry (DSC; MicroCal™ Incorporated). Ghrelin were added approximately 2 h before the administration of the formulation to the animals in doses of 60 μg per 500 μL
# Intralipid 30% were purchased from the local Pharmacy on the Danish University Hospital Copenhagen (Rigshospitalet). 1000 mL contain: purified soybean oil 300 g, purified egg phospholipids 12 g, glycerol anhydrous 16.7 g, water for injection q.s. ad 1 000 mL. pH is adjusted with sodium hyroxide to pH approximately 7.5.
# Animals: Thirty (30) male Sprague Dawley rats (aged 6-7 weeks; approximately 300 g; Charles River, Germany) were used. Upon arrival at the animal facility, they were housed 3 per cage for one week, and subsequently transferred to individual cages with access to food and water ad libitum.
# After one week of singly housing, the rats were ready for experiments and were randomized into 5 weight-matched groups (6 pr. group):
# All compounds were administered by subcutaneous administration (0.5 ml/300g rat)
# On the experimental day (0800-0930), 15 minute prior to receiving the test dose, a 200 μl blood sample was drawn from the tail vein. At time point 0 a second blood sample was drawn and immediately after rats received an sc injection with test compound according to the groups listed above. Seven more samples were drawn (volume 200 μl) at time points: 15, 30, 45, 60, 90, 120 and 240 minutes post injection according to study outline. The total blood volume drawn was 1800 μl (approx. 10% of total blood volume).
# Blood samples were kept on ice until plasma separation could be performed. After centrifugation (4000 rpm for 10 minutes) plasma was transferred to vials/tubes containing 5 μL 1N HCl og 5 μL 2mg/mL solution of Phenylmethylsulfonyl fluoride in isopropanol.
# The active (acylated) ghrelin in the plasma samples was measured by use of a RIA assay (Linco Research, Inc) according to the manufactures protocol.
# [8] = subcutaneous 0.8 to 1.5 micrograms/kg twice daily for 4 weeks, one patient
# [9] = gastrectomised mice, 12 nmol sc daily, 8 weeks
# [10] = ghrelin (200 mg/kg) in a buffer
compound,measurement,setting,value
CCCCCCCC(=O)OC[C@H](NC(=O)[C@H](CO)NC(=O)CN)C(=O)N[C@@H](Cc1ccccc1)C(=O)N[C@@H](CC(C)C)C(=O)N[C@@H](CO)C(=O)N1CCC[C@H]1C(=O)N[C@@H](CCC(=O)O)C(=O)N[C@@H](Cc1cnc[nH]1)C(=O)N[C@@H](CCC(N)=O)C(=O)N[C@@H](CCCNC(=N)N)C(=O)N[C@H](C(=O)N[C@@H](CCC(N)=O)C(=O)N[C@@H](CCC(N)=O)C(=O)N[C@@H](CCCNC(=N)N)C(=O)N[C@@H](CCCCN)C(=O)N[C@@H](CCC(=O)O)C(=O)N[C@@H](CO)C(=O)N[C@@H](CCCCN)C(=O)N[C@@H](CCCCN)C(=O)N1CCC[C@H]1C(=O)N1CCC[C@H]1C(=O)N[C@@H](C)C(=O)N[C@@H](CCCCN)C(=O)N[C@@H](CC(C)C)C(=O)N[C@@H](CCC(N)=O)C(=O)N1CCC[C@H]1C(=O)N[C@@H](CCCNC(=N)N)C(=O)O)C(C)C [ghrelin],plasma ghrelin 6 h after injection,"[1]; 12 nmol sc, 6 h",still elevated
same,plasma concentration of active (octanoylated) ghrelin 6 h after injection,"[1]; 12 nmol sc, 6 h, n=4",remained high
same,plasma concentration of active (octanoylated) ghrelin (ELISA),"[1]; 12 nmol sc, n=4",greatly elevated
same,"plasma ghrelin concentration (RIA, octanoylated and des-octanoylated)","[1]; 12 and 24 nmol sc, n=6 in each group",raised
same,tumor progression (CT-scans),"[2]; mesothelioma, during the subcutaneous ghrelin treatment, 4 weeks",did not progress
same,body weight and body composition,"[2]; subcutaneous 0.8 to 1.5 micrograms/kg twice daily before meals for 4 weeks, one patient",stable body weight and body composition
same,ability to eat meals,[2]; [8],able to eat full plates of meals and finish these; also recorded: increased objective hunger and ability to eat meals
same,hunger,[2]; [8],did not feel more intensified hunger; also recorded: increased objective hunger
same,adverse effects,"[2]; subcutaneous treatment, 4 weeks",no significant adverse effects
same,lab values,"[2]; subcutaneous treatment, weekly standard laboratory tests",did not show a substantial difference
same,plasma ghrelin concentration 16-18 h after injection,"[3]; 12 nmol sc daily for 8 weeks, 16-18 h after the last injection",elevated
same,amount of fat (fat depots),[3]; [9],normalized the fat depots
same,"amount of lean tissue (lean body mass, DXA)",[3]; [9],reversed the effect; also recorded: normalized
same,body weight raised,[3]; [9],8%
same,"lean body mass, ghrelin versus saline","[3]; sham-operated mice, 12 nmol sc daily, 8 weeks",no difference
same,increase in plasma growth hormone levels,growth hormone,more than 5 fold
same,increase of food intake,[4],30%
same,food intake,[5],increase in food intake
same,response to ghrelin treatment,[6],responded well
same,decrease of plasma concentration in the 15 min after the maximum (time point 30 min),[7]; [10],approximately 30%
same,further decrease of plasma concentration in the following 15 min (time point 45),[7]; [10],~60%
same,increase in active ghrelin in plasma,[7]; [10],approximately 10 fold
same,plasma level of active ghrelin after 120 min,[7]; [10],slightly increased
same,plasma level of active ghrelin after 240 min,[7]; [10],back to basal level
same,Tmax,"[7]; male, Sprague Dawley, plasma, sc, ghrelin in a buffer, read-out: time of maximal plasma concentration of ghrelin (converted)",15 min

# Source: patent US20070037751A1, “Uses of secretagogues like ghrelin in cancer cachexia and for stimulating appetite” (priority 2003, published 2007)
